Values of other authors as cited in paper PMC12697872, “Rethinking the AI Paradigm for Solubility Prediction of Drug‑Like Compounds with Dual‐Perspective Modeling and Experimental Validation” (Advanced Science, 2025).

Conditions: experimental aqueous solubility as logS, sheet "DrugBank" of Supplement 2; ref DrugBank; cited from earlier work

| SMILES | ex_logS |
| --- | --- |
| Oc1ncnc2[nH]ncc12 [allopurinol] | -2.26 |
| CC=CC1=C(C(=O)O)N2C(=O)[C@@H](NC(=O)[C@H](N)c3ccc(O)cc3)[C@H]2SC1 [Cefprozil] | -3.85 |
| C[C@@H]1C[C@H]2[C@@H]3CCC4=CC(=O)C=C[C@]4(C)[C@@]3(F)[C@@H](O)C[C@]2(C)[C@H]1C(=O)CO [Desoximetasone] | -3.951 |
| C=CC(N)CCC(=O)O (centres unmarked) [Vigabatrin] | -0.37 |
| COc1ccc(C2C(=O)c3ccccc3C2=O)cc1 [Anisindione] | -3.5 |
| COC1=CC(=O)C[C@@H](C)[C@]12Oc1c(Cl)c(OC)cc(OC)c1C2=O [Griseofulvin] | -4.611 |
| NS(=O)(=O)c1cc2c(cc1Cl)N=C(CSCc1ccccc1)NS2(=O)=O [Benzthiazide] | -4.686 |
| C[C@]12C=CC(=O)C=C1CC[C@@H]1[C@@H]2CC[C@]2(C)OC(=O)CC[C@@H]12 [Testolactone] | -4.04 |
| CC1(C)O[C@@H]2[C@@H](CO[C@@]3(COS(N)(=O)=O)OC(C)(C)O[C@@H]23)O1 [Topiramate] | -1.539 |
| CC(C)(C)NCC(O)COc1cccc2c1CC(O)C(O)C2 (centres unmarked) [Nadolol] | -1.57 |
| O=C(O)CC(=O)O [Malonic acid] | 0.8652 |
| CN1C(=O)CC(c2ccccc2)C1=O (centres unmarked) [Phensuximide] | -1.431 |

Same assay, conditions: experimental aqueous solubility as logS, sheet "DrugBank"; ref DrugBank database; cited from earlier work

| SMILES | ex_logS |
| --- | --- |
| CN(C)CCCN1c2ccccc2CCc2ccccc21 [Imipramine] | -4.188 |
| O=C(O)c1cccnc1C(=O)O [Quinolinic Acid] | -1.182 |
| CCn1c(=O)c2c(nc(/C=C/c3ccc(OC)c(OC)c3)n2C)n(CC)c1=O [Istradefylline] | -5.886 |
| COc1ccc2[nH]c([S+]([O-])Cc3ncc(C)c(OC)c3C)nc2c1 (centres unmarked) [Omeprazole] | -2.983 |
| OC[C@H]1O[C@@](CO)(O[C@H]2O[C@H](CO)[C@@H](O)[C@H](O)[C@H]2O)[C@@H](O)[C@@H]1O [Sucrose] | 0.7878 |
| CC(=O)OCC(=O)[C@@]1(O)CC[C@H]2[C@@H]3CCC4=CC(=O)CC[C@]4(C)[C@H]3C(=O)C[C@@]21C [Cortisone acetate] | -4.304 |
| CC(=O)/N=c1/sc(S(N)(=O)=O)nn1C [Methazolamide] | -1.829 |
| N[C@@H]1[C@H]2CN(c3nc4c(cc3F)c(=O)c(C(=O)O)cn4-c3ccc(F)cc3F)C[C@@H]12 [Trovafloxacin] | -4.53 |
| CN[C@H](CC(C)C)C(=O)N[C@H]1C(=O)N[C@@H](CC(N)=O)C(=O)N[C@H]2C(=O)N[C@H]3C(=O)N[C@H](C(=O)N[C@H](C(=O)O)c4cc(O)cc(O)c4-c4cc3ccc4O)[C@H](O[C@H]3C[C@](C)(N)[C@@H](O)[C@H](C)O3)c3ccc(c(Cl)c3)Oc3cc2cc(c3O[C@@H]2O[C@H](CO)[C@@H](O)[C@H](O)[C@H]2O[C@H]2C[C@](C)(NCc3ccc(-c4ccc(Cl)cc4)cc3)[C@@H](O)[C@H](C)O2)Oc2ccc(cc2Cl)[C@H]1O [Oritavancin] | -2.2536 |
| NCC(CC(=O)O)c1ccc(Cl)cc1 (centres unmarked) [Baclofen] | -1.672 |
| CCOC(=O)c1ncn2c1CN(C)C(=O)c1cc(F)ccc1-2 [Flumazenil] | -3.375 |
| C[C@H](N)[C@@H](O)c1ccccc1 [Cathine] | -0.8785 |
| Nc1ncnc2[nH]cnc12 [Adenine] | -2.1179 |
| O=C(O)CCCC[C@@H]1SC[C@@H]2NC(=O)N[C@@H]21 [Biotin] | -3.046 |
| Nc1nc2c(ncn2COCCO)c(=O)[nH]1 [Acyclovir] | -2.203 |
| Nc1nc(CC(=O)Nc2ccc(CCNC[C@H](O)c3ccccc3)cc2)cs1 [Mirabegron] | -3.684 |
| CC(=O)OCC1=C(C(=O)O)N2C(=O)[C@@H](NC(=O)CSc3ccncc3)[C@H]2SC1 [Cefapirin] | -2.614 |
| CCC(c1ccccc1)c1c(O)c2ccccc2oc1=O (centres unmarked) [Phenprocoumon] | -4.337 |
| CC[C@@H](C(N)=O)N1CCCC1=O [Levetiracetam] | 0.786 |
| N[C@@H](CS)C(=O)O [Cysteine] | 0.3591 |
